The values below are quoted from earlier work in patent US11472859B2, “Method and composition for treating neuronal hyper-excitabtiity” (The Regents of the University of California, priority 2016, dated 2022).

Structures are written as SMILES. Entries after “also recorded” stand apart in the source; their conditions may differ.

Series [1] has as its system spasticity. The settings on record: for anti-spasticity effect: systemic or spinal administration, clinical (and experimental animal) studies.
The test system of series [2] is brain or spinal parenchymal GABA release. Particulars: after systemic delivery.

`NCC(CC(=O)O)c1ccc(Cl)cc1` (stereo not shown) [baclofen]: in series [1] (clinical use, systemic or spinal), the side effects result was “major side effects such as general sedation and progressive tolerance development; also recorded: unwanted systemic side effects such as sedation”. Further, in series [1], the anti-spasticity effect entry is “most potent anti-spasticity pharmacological treatment; also recorded: effective in modulating spasticity; also recorded: potent antispasticity effect”.
On to `Cc1ccsc1C(=CCCN1CCC[C@@H](C(=O)O)C1)c1sccc1C` [tiagabine], for which the anti-spasticity effect result in series [1] is given as “only a weak or no anti-spasticity effect”. The “potentiation of brain or spinal parenchymal GABA release” value in series [2] is listed as “relatively modest potentiation”.
